# Experimental data reported in US20250052744A1, “Dyes and Uses Thereof” (The University of Liverpool, priority 2021, published 2025).
# Key:
# Experiment in all cases: Bacterial growth with dyes, optical density after 24 hours
# Type in all cases: cell-based
# Details in all cases: with 3 μM DiSC3(5) and 3 μM SYTO 13/9
# E. Coli SEC 31 = tested on: E. Coli SEC 31
# Description: (§1) FIG. 3 is a graph showing is a graph showing the average optical density after 24 hours (OD 600) of P. Aeruginosa NCTC 10332, E. Coli SEC 31, Enterococcus faecium NCTCT 7171, P. Mirabilis NCTC 11938, S. Aureus NCTC 8532 and Klebsiella pneumoniae NCTC 9633, when incubated with DiSC3(5), SYBR Green I and SYTO 13/9 where different concentrations of SYBR Green I were assessed.
# as §1, with “FIG. 4” for “FIG. 3”, “of SYTO 13/9” for “of SYBR Green I”
# (§2) Comparative experiments were conducted using multiple DNA dyes in low concentration and one DNA at different (and higher) concentration in order to establish whether increasing DNA dye concentration would affect bacterial growth and hinder the differentiation of bacterial strains.
# (§3) Experiments were conducted which were similar to Example 1.
# (§4) In one experiment, 3 μM of DiSC3(5) and 3 μM of SYTO 13/9 was assessed with CYBR Green I at the following concentrations: 1× average, 3× average, 10× average, 30 average and 100× average.
# (§5) In another experiment, 3 μM of DiSC3(5) and 10× of CYBR Green I was assessed with SYTO 13/9 at the following concentrations: 1 μM average, 3 μM average and 10 μM average.
# [1] = tested on: Enterococcus faecium NCTCT 7171
# Description: as §1
# as §1, with “FIG. 4” for “FIG. 3”, “of SYTO 13/9” for “of SYBR Green I”
# as §2, §3, §4, §5
# [2] = tested on: Klebsiella pneumoniae NCTC 9633
# Description: as §1
# as §1, with “FIG. 4” for “FIG. 3”, “of SYTO 13/9” for “of SYBR Green I”
# as §2, §3, §4, §5
# P. Aeruginosa NCTC 10332 = tested on: P. Aeruginosa NCTC 10332
# Description: as §1
# as §1, with “FIG. 4” for “FIG. 3”, “of SYTO 13/9” for “of SYBR Green I”
# as §2, §3, §4, §5
# P. Mirabilis NCTC 11938 = tested on: P. Mirabilis NCTC 11938
# Description: as §1
# as §1, with “FIG. 4” for “FIG. 3”, “of SYTO 13/9” for “of SYBR Green I”
# as §2, §3, §4, §5
# S. Aureus NCTC 8532 = tested on: S. Aureus NCTC 8532
# Description: as §1
# as §1, with “FIG. 4” for “FIG. 3”, “of SYTO 13/9” for “of SYBR Green I”
# as §2, §3, §4, §5
smiles,measurement,setting,value
"CCCN(CCCN(C)C)c1cc(/C=C2/Sc3ccccc3N2C)c2ccccc2[n+]1-c1ccccc1 [SYBR Green I, N′,N′-dimethyl-N-[4-[(E)-(3-methyl-1,3-benzothiazol-2-ylidene)methyl]-1-phenylquinolin-1-ium-2-yl]-N-propylpropane-1,3-diamine]",average optical density after 24 hours (OD 600),E. Coli SEC 31; SYBR Green I 1x,3.407
same,average optical density after 24 hours (OD 600),E. Coli SEC 31; SYBR Green I 3x,3.306
same,average optical density after 24 hours (OD 600),E. Coli SEC 31; SYBR Green I 10x,3.139
same,average optical density after 24 hours (OD 600),E. Coli SEC 31; SYBR Green I 30x,2.086
same,average optical density after 24 hours (OD 600),E. Coli SEC 31; SYBR Green I 100x,2.514
same,average optical density after 24 hours (OD 600),[1]; SYBR Green I 1x,1.158
same,average optical density after 24 hours (OD 600),[1]; SYBR Green I 3x,1.315
same,average optical density after 24 hours (OD 600),[1]; SYBR Green I 10x,0.136
same,average optical density after 24 hours (OD 600),[1]; SYBR Green I 30x,0
same,average optical density after 24 hours (OD 600),[1]; SYBR Green I 100x,0.022
same,average optical density after 24 hours (OD 600),[2]; SYBR Green I 1x,4.719
same,average optical density after 24 hours (OD 600),[2]; SYBR Green I 3x,4.907
same,average optical density after 24 hours (OD 600),[2]; SYBR Green I 10x,3.439
same,average optical density after 24 hours (OD 600),[2]; SYBR Green I 30x,2.053
same,average optical density after 24 hours (OD 600),[2]; SYBR Green I 100x,1.138
same,average optical density after 24 hours (OD 600),P. Aeruginosa NCTC 10332; SYBR Green I 1x,5.785
same,average optical density after 24 hours (OD 600),P. Aeruginosa NCTC 10332; SYBR Green I 3x,5.785
same,average optical density after 24 hours (OD 600),P. Aeruginosa NCTC 10332; SYBR Green I 10x,2.968
same,average optical density after 24 hours (OD 600),P. Aeruginosa NCTC 10332; SYBR Green I 30x,3.113
same,average optical density after 24 hours (OD 600),P. Aeruginosa NCTC 10332; SYBR Green I 100x,2.39
same,average optical density after 24 hours (OD 600),P. Mirabilis NCTC 11938; SYBR Green I 1x,5.785
same,average optical density after 24 hours (OD 600),P. Mirabilis NCTC 11938; SYBR Green I 3x,5.785
same,average optical density after 24 hours (OD 600),P. Mirabilis NCTC 11938; SYBR Green I 10x,4.635
same,average optical density after 24 hours (OD 600),P. Mirabilis NCTC 11938; SYBR Green I 30x,4.044
same,average optical density after 24 hours (OD 600),P. Mirabilis NCTC 11938; SYBR Green I 100x,0.001
same,average optical density after 24 hours (OD 600),S. Aureus NCTC 8532; SYBR Green I 1x,3.796
same,average optical density after 24 hours (OD 600),S. Aureus NCTC 8532; SYBR Green I 3x,0
same,average optical density after 24 hours (OD 600),S. Aureus NCTC 8532; SYBR Green I 10x,0
same,average optical density after 24 hours (OD 600),S. Aureus NCTC 8532; SYBR Green I 30x,0
same,average optical density after 24 hours (OD 600),S. Aureus NCTC 8532; SYBR Green I 100x,0
